From US9913854B2, “Methods and compositions for reducing the proliferation of gram positive bacteria” (priority 2012, dated 2018)
In brackets after ≈: the same amount, converted by molar mass. Entries after “also recorded” stand apart in the source; their conditions may differ. Where two headings read alike, the source gives them in different places.

Key:
S. aureus tarO mutant = experiment: Dye sensitivity test on agar plates; format: cell-based, Staphylococcus aureus; details: for selective suppression of growth of tarO mutant but not parental strain on dye agar: Newman ΔtarO vs Newman; for growth on agar with Congo Red: tarO mutant, 0.08% w/v Congo Red
Procedure: (§1) Congo Red sensitivity tests were conducted as previously described (Hubscher et al., FEMS Microbiol. Lett. 295:251-260, 2009), with minor modification. Briefly, 10-fold dilutions, starting at 10^6 colony forming units (CFU) in 5 μL, were spotted on brain heart infusion (BHI) agar or Luria-Bertani (LB) agar, supplemented with 0.08% (w/v) Congo Red where appropriate. The Congo Red agar plates were incubated at 37° C. or 30° C. for 24 hours. As a precaution to prevent possible inactivation of Congo Red by light, the plates were incubated in the dark. Sensitivity to Congo Red was determined by comparing colony density between parental and mutant strains on control and Congo Red plates. Sudan Red 7B (0.08% w/v), Calcofluor White (0.01% w/v), Direct Red (0.08% w/v), Mordant Black (0.08% w/v), or Acid Red (0.08% w/v) in BHI agar were tested similarly.

C. elegans = experiment: Toxicity against uninfected C. elegans; format: in vivo, Caenorhabditis elegans; details: single agent; tunicamycin 6.25-100.0 mg/L, Congo Red 3.1-50.0 mg/L; uninfected worms
Procedure: (§2) C. elegans glp-4(bn2); sek-1(km4) was used for all experiments and infected essentially as described in Breger et al. (PLoS Pathog. 3:e18, 2007), with minor modifications. This mutant line was selected for liquid assay experiments because they are unable to produce progeny at 25° C. (Miyata et al., Genetics 178:903-918, 2008), and the deleted sek-1 gene encodes a conserved mitogen-activated protein (MAP) kinase involved in innate immunity (Kim et al., Science 297:623-626, 2002), expediting the rate of killing. Worms were cultured and maintained on nematode growth medium (NGM) agar containing lawns of E. coli HB101 (Breger et al., PLoS Pathog. 3:e18, 2007).
(§3) To assess the sensitivity of C. elegans to infection by S. aureus RN6390 or an isogenic ΔtarO strain, the bacteria were cultured in TSB at 37° C. Overnight cultures were plated onto 10 cm TSB agar plates for 18 hours at 37° C., and cooled at room temperature for 30 minutes. Washed young adult worms were infected on lawns of S. aureus strains for 3 hours at 25° C. After washing three times with M9, worms were transferred into the wells of a six well microtiter plates (40 worms per well). Each well contained 2 mL of assay medium (20% BHI: 80% M9 v/v) containing various concentrations of Congo Red, tunicamycin, or a combination of Congo Red and tunicamycin. […]

S. aureus Newman ΔtarO = experiment: Kinetics of Congo Red inhibition, growth in TSB; format: cell-based, Staphylococcus aureus; details: Newman tarO, 10 mg/L Congo Red
Procedure: FIG. 5 is a graph showing the growth of S. aureus strain Newman (closed circles) and Newman ΔtarO (open circles) in tryptic soy broth (TSB) before and following the addition of 10 mg/L Congo Red (black arrow).
To assess kinetics of Congo Red inhibition, growth of S. aureus strain Newman and its tarO mutant were assessed in TSB containing 10 mg/L Congo Red. Newman tarO began to die 3 hours after addition of Congo Red (FIG. 5). To probe the mechanism of killing, Congo Red-inhibited cells were examined by transmission electron microscopy (TEM) (FIGS. 6A-6D). […] Since Congo red contains two sulfonic-acid groups, the MICs for sulfanilamide which is developed from prontocil were determined in the Newman and tarO mutant strains.

[1] = test system: C. elegans infected with S. aureus RN6390 ΔtarO; experiment: C. elegans infection model, S. aureus RN6390 ΔtarO; format: in vivo, Caenorhabditis elegans; details: Congo Red alone 3.1-25.0 mg/L
Procedure: as §2, §3

S. aureus strain Newman = experiment: Checkerboard assay, Congo Red and tunicamycin; format: cell-based, Staphylococcus aureus
Procedure: A standard checkerboard assay, using Congo Red and tunicamycin, was performed as described in Lorian (Antibiotics in Laboratory Medicine, 4th Edition, Baltimore, Md., Williams & Wilkins Co., 1996). To assess the kinetics of inhibition, cultures of strain Newman were started in TSB containing either Congo Red or tunicamycin. Briefly, an overnight culture of S. aureus strain Newman was diluted to approximately 10^5 CFU/mL in 10 mL of TSB containing 10 mg/L Congo Red or 1 mg/L tunicamycin, and cultured at 37° C. statically. Following 2 h incubation, tunicamycin (1 mg/L final concentration) was added to the Congo Red culture, or Congo Red (10 mg/L final concentration) was added to the tunicamycin culture. Following 6 h of additional incubation bacteria were enumerated by plating serial ten-fold dilutions.

S. aureus RN4220 = experiment: MIC, CLSI broth microplate assay; format: cell-based, Staphylococcus aureus
Procedure: (§4) In vitro susceptibility tests (minimum inhibitory concentration [MIC]) were conducted using the Clinical and Laboratory Standards Institute (CLSI) broth microplate assay guidelines (Clinical and Laboratory Standards Institute, Performance Standards for Antimicrobial Susceptibility Testing; 16th Informational Supplement, CLSI M100-S16, Wayne, Pa., 2006). Because of temperature sensitivity, to determine susceptibility of RN4220 ΔltaS, bacteria were cultured at 30° C. for 20 h.

S. aureus Newman [2] = experiment: MIC, CLSI broth microplate assay; format: cell-based, Staphylococcus aureus
Procedure: as §4

[3] = test system: S. aureus RN4220ΔltaS-ltaS; experiment: MIC, CLSI broth microplate assay; format: cell-based, Staphylococcus aureus
Procedure: as §4

S. aureus RN4220ΔtarK = experiment: MIC, CLSI broth microplate assay; format: cell-based, Staphylococcus aureus
Procedure: as §4

S. aureus RN4220ΔltaS = experiment: MIC, CLSI broth microplate assay; format: cell-based, Staphylococcus aureus
Procedure: as §4

S. aureus RN6390 = experiment: MIC, CLSI broth microplate assay; format: cell-based; details: Staphylococcus aureus; strain RN6390
Procedure: as §4

S. aureus RN6390ΔtarO = experiment: MIC, CLSI broth microplate assay; format: cell-based; details: Staphylococcus aureus
Procedure: as §4

S. aureus RN4220ΔtarA = experiment: MIC, CLSI broth microplate assay; format: cell-based; details: Staphylococcus aureus
Procedure: as §4

S. aureus RN4220ΔtarO = experiment: MIC, CLSI broth microplate assay; format: cell-based; details: Staphylococcus aureus
Procedure: as §4

S. aureus NewmanΔtarO = experiment: MIC, CLSI broth microplate assay; format: cell-based; details: Staphylococcus aureus
Procedure: as §4

[4] = test system: C. elegans infected with S. aureus RN6390; experiment: C. elegans infection model, S. aureus RN6390; format: in vivo, Caenorhabditis elegans; details: Congo Red alone 3.1-25.0 mg/L
Procedure: as §2, §3

S. aureus ltaS mutant = experiment: Congo Red sensitivity test on agar plates; format: cell-based, Staphylococcus aureus; details: LB agar, 0.08% w/v Congo Red, 30° C. and 37° C.
Procedure: as §1
To determine whether loss of lipoteichoic acid (LTA) could also generate the Congo Red susceptible phenotype, an ltaS mutant of S. aureus was tested (Oku et al., J. Bacteriol. 191:141-151, 2009). The ltaS mutant is sensitive to heat and low osmolarity (Grundling et al., Proc. Natl. Acad. Sci. U.S.A. 104:8478-8483, 2007; Oku et al., J. Bacteriol. 191:141-151, 2009). Therefore, Congo Red was added at 0.08% w/v to Luria broth (LB) agar (having a higher NaCl concentration than BHI), and the strain was tested for Congo Red sensitivity at 30° C. […]

S. aureus Newman [5] = experiment: Transmission electron microscopy after Congo Red; format: cell-based, Staphylococcus aureus; details: Newman parental; 6 hours in TSB with 10 mg/L Congo Red
Procedure: Newman or Newman ΔtarO were inoculated to approximately 10^9 CFU/mL in TSB containing 10 mg/L Congo Red, and cultured at 37° C. for 6 h. Cells were collected at 0 or 6 h, fixed in Karnovsky's fixative (2% paraformaldehyde and 2.5% glutaraldehyde in cacodylate buffer [pH 7.4]), and processed for TEM using standard procedures described in Suzuki et al. (Invest. Ophthalmol. Vis. Sci. 52:3187-3192, 2011). For TEM, 60- to […] sections were obtained, viewed, and photographed with a transmission electron microscope (model 410; Philips Electronics NV, Eindhoven, The Netherlands).

[6] = test system: S. aureus tarO and tarA mutants lacking WTA; experiment: MIC, for mutants lacking WTA; format: cell-based, Staphylococcus aureus
Procedure: as §4
Minimum inhibitory concentrations (MICs) for Congo Red were determined by microdilution assay. Consistent with the results of agar plate tests, the parental strain RN4220, and isogenic tarK, and ltaS mutants, as well as an ltaS strain complemented on a multicopy plasmid, were all resistant to Congo Red at concentrations>1024 mg/L (Table 2).

S. aureus tarA mutant = experiment: Congo Red sensitivity test on agar plates; format: cell-based, Staphylococcus aureus; details: 0.08% w/v Congo Red
Procedure: as §1

S. aureus tarK mutant = experiment: Congo Red sensitivity test on agar plates; format: cell-based, Staphylococcus aureus; details: 0.08% w/v Congo Red
Procedure: as §1

[7] = BHI agar, dye 0.08% w/v, 37° C., 24 hours

## CCNc1ccc2ccccc2c1N=Nc1ccc(N=Nc2ccccc2)cc1 [Sudan Red 7B]
S. aureus tarO mutant; [7]
  selective suppression of growth of tarO mutant but not parental strain on dye agar: conferred susceptibility

## tunicamycin
C. elegans
  toxicity for C. elegans: dose dependent toxicity

## Mordant black
S. aureus tarO mutant; [7]
  selective suppression of growth of tarO mutant but not parental strain on dye agar: conferred susceptibility

## Nc1c(/N=N/c2ccc(-c3ccc(/N=N/c4cc(S(=O)(=O)O)c5ccccc5c4N)cc3)cc2)cc(S(=O)(=O)O)c2ccccc12 [Congo Red]
S. aureus Newman ΔtarO
  time after addition of Congo Red at which bacteria began to die: 3 h
[1]
  rescue of infected nematodes (survival): rescue
S. aureus strain Newman; tunicamycin as low as 5 mg/L
  Congo Red MIC in presence of tunicamycin: 1 µg/mL
S. aureus strain Newman; two-dimensional checkerboard, 20 hours, 37° C.
  synergy with tunicamycin: strong synergy
S. aureus RN4220; Staphylococcus aureus, RN4220
  MIC: > 1020 µg/mL
S. aureus RN4220; strain RN4220
  MIC: >1024 µg/mL
S. aureus Newman [2]; Staphylococcus aureus, NEWMAN
  MIC: > 1020 µg/mL
S. aureus Newman [2]; strain Newman, single agent
  MIC: >1024 µg/mL
[3]; Staphylococcus aureus
  MIC: > 1020 µg/mL
[3]; strain RN4220ΔltaS-ltaS (ltaS complemented on multicopy plasmid)
  MIC: >1024 µg/mL
S. aureus RN4220ΔtarK; Staphylococcus aureus
  MIC: > 1020 µg/mL
S. aureus RN4220ΔtarK; strain RN4220ΔtarK
  MIC: >1024 µg/mL
S. aureus RN4220ΔltaS; Staphylococcus aureus, 20 h
  MIC: > 1020 µg/mL
S. aureus RN4220ΔltaS; strain RN4220ΔltaS, cultured at 30° C. for 20 h
  MIC: >1024 µg/mL
S. aureus RN6390
  MIC: > 1020 µg/mL
S. aureus RN6390ΔtarO
  MIC: 4 µg/mL (≈ 6.13 µM)
S. aureus RN4220ΔtarA
  MIC: 0.5 µg/mL (≈ 0.766 µM)
S. aureus RN4220ΔtarO
  MIC: 2 µg/mL (≈ 3.06 µM)
S. aureus NewmanΔtarO
  MIC: 1 µg/mL (≈ 1.53 µM)
S. aureus tarO mutant; BHI agar, 37° C., 24 hours
  growth on agar with Congo Red: highly susceptible; also recorded: neither tarA nor tarO strains grew
S. aureus tarO mutant; LB agar, 30° C. and 37° C.
  growth on agar with Congo Red: inhibited
[4]
  rescue of infected nematodes (survival): little effect; also recorded: inability
S. aureus ltaS mutant
  growth on agar with Congo Red: no effect
C. elegans
  toxicity for C. elegans: little toxicity
S. aureus Newman [5]
  cell morphology by TEM: not detectably affected
[6]; Staphylococcus aureus
  MIC: 0.5 to 4 µg/mL (≈ 0.766 to 6.13 µM)
[6]; tarO and tarA mutants vs parental, tarK, ltaS strains
  MIC fold lower than resistant strains: 250-2000 fold
S. aureus tarA mutant
  growth on agar with Congo Red: neither tarA nor tarO strains grew
S. aureus tarK mutant
  growth on agar with Congo Red: not affected

## Nc1ccc(S(N)(=O)=O)cc1 [sulfanilamide]
S. aureus Newman [2]; Staphylococcus aureus, strain Newman, single agent, read-out: MIC
  MIC: > 128 µg/mL
S. aureus NewmanΔtarO
  MIC: > 128 µg/mL

## O=S(=O)(O)c1cc(Nc2nc(Nc3ccccc3)nc(N(CCO)CCO)n2)ccc1/C=C/c1ccc(Nc2nc(Nc3ccccc3)nc(N(CCO)CCO)n2)cc1S(=O)(=O)O [Calcofluor White]
S. aureus tarO mutant; BHI agar, dye 0.01% w/v, 37° C., 24 hours
  selective suppression of growth of tarO mutant but not parental strain on dye agar: conferred susceptibility

## CCN(CC)c1ccc2c(-c3ccc(S(=O)(=O)[O-])cc3S(=O)(=O)[O-])c3ccc(=[N+](CC)CC)cc-3oc2c1.[Na+] [Acid Red]
S. aureus tarO mutant; [7]
  selective suppression of growth of tarO mutant but not parental strain on dye agar: conferred susceptibility

## Direct Red
S. aureus tarO mutant; [7]
  selective suppression of growth of tarO mutant but not parental strain on dye agar: conferred susceptibility
